Assay results taken from publication PMC3711794 (Molecular cancer therapeutics, 2012).
One block for each compound: values may come before it. Non-standard residues stand in square brackets, D forms with d. Residues, ends and D or L forms follow the SMILES beside them. pT = C[C@@H](OP(=O)(O)O)[C@H](N)C(=O)O

Assays:
PLK3 PBD (335–646) = target: T1, PLK3 PBD (335–646) (Homo sapiens, UniProt Q9H4B4); test: Fluorescence polarization competitive binding assay, PLK3 PBD
T1 sequence (Q9H4B4 335-646): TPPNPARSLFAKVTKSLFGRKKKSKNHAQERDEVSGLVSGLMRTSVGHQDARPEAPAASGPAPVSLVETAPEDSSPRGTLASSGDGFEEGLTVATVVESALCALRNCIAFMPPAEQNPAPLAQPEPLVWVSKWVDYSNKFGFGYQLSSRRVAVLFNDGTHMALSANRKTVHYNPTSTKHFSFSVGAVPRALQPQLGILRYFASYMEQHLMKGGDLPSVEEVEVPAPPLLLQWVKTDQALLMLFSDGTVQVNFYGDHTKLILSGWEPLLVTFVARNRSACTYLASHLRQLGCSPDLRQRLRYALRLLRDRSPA

HeLa-H2B-GFP cells [1] = test: Immunofluorescence of PLK1 centrosomal localization after QQ transfection; conditions: for fluorescence intensity of PLK1 staining at centrosomes: PBS control 51.2, QQ control 49.2
HeLa cells = test: Annexin V – Propidium Iodide flow cytometry cell death assay; type: cell-based
HeLa-H2B-GFP cells [2] = test: Aberrant prometaphase/metaphase analysis after QQ transfection; type: cell-based; conditions: for aberrant prometaphase/metaphase cells: controls <10%
PLK1 = conditions: ref [38]; cited from earlier work
PBD = conditions: read-out: Kd for the PBD; ref [19]; cited from earlier work

IC50 (PLK3 PBD (335–646)): 6.5 µM
Compound: CC(C)C[C@H](NC(=O)[C@@H]1CCCN1C(=O)CN)C(=O)N[C@@H](C)C(=O)N[C@H](C(=O)N[C@@H](CO)C(=O)N[C@H](C(=O)N1CCC[C@H]1C(=O)N[C@@H](CCCCN)C(=O)N[C@@H](CC(N)=O)C(=O)NCC(=O)O)[C@@H](C)OP(=O)(O)O)[C@@H](C)O [PLK3 ligand, GPLATS[pT]PKNG, reference compound] (H-GPLATS[pT]PKNG-OH)

Compound: CC(C)C[C@H](NC(=O)CNC(=O)[C@H](CC(N)=O)NC(=O)[C@@H]1CCCN1C(=O)[C@@H](NC(=O)[C@H](CO)NC(=O)[C@H](CS)NC(=O)[C@H](CC(C)C)NC(=O)[C@@H](N)CC(C)C)[C@@H](C)OP(=O)(O)O)C(=O)O [compound 292, LLCS[pT]PNGL] (H-LLCS[pT]PNGL-OH)
fluorescence intensity of PLK1 staining at centrosomes (HeLa-H2B-GFP cells [1]; concentration not given): 45 arbitrary fluorescence units
induction of apoptosis in words (HeLa cells; 30 µM, relative to the controls): did not induce significant levels of apoptosis
aberrant prometaphase/metaphase cells (HeLa-H2B-GFP cells [2]; 30 µM dose): 25%

Compound: O=c1c(O)cccc2cc(O)c(O)c(O)c12 [PPG, purpurogalin, reference compound]
inhibition of PLK1 catalytic activity in vitro (PLK1): neither PPG nor Poloxin inhibit PLK1 catalytic activity
induction of aberrant mitoses in words (HeLa-H2B-GFP cells [2]; data not shown): very few aberrant mitoses

Compound: LHSpTAI
Kd (PBD): 0.25 µM

Compound: CC(=O)N1CCC[C@H]1C(=O)N[C@@H](CC(C)C)C(=O)N[C@@H](Cc1c[nH]cn1)C(=O)N[C@@H](CO)C(=O)N[C@H](C(=O)N[C@@H](C)C(=O)O)[C@@H](C)OP(=O)(O)O [compound 5743, Ac-PLHS[pT]A] (Ac-PLHS[pT]A-OH)
statistical significance of decrease in PLK1 centrosomal fluorescent intensity (HeLa-H2B-GFP cells [1]): Statistically significant decreases
fluorescence intensity of PLK1 staining at centrosomes (HeLa-H2B-GFP cells [1]; 30 μM): 33 arbitrary fluorescence units
decrease in percentage of viable cells (HeLa cells; 30 µM, 24 hours post-treatment): 30%
Apoptosis @ 24hr, 30 µM (HeLa cells; HeLa cells, QQ transfected, 24 hr): 34.0%
inhibition at 600 µM (PLK3 PBD (335–646); read-out: inhibition of PLK3 PBD binding): 31%
aberrant prometaphase/metaphase cells (HeLa-H2B-GFP cells [2]; 10 µM dose): 32%
aberrant prometaphase/metaphase cells (HeLa-H2B-GFP cells [2]; 30 µM dose): 40.3%
Aberrant mitoses, @ 24hr, 30 µM (HeLa-H2B-GFP cells [2]; HeLa-H2B-GFP cells, QQ transfected, 24 hr, 30 µM): 40.3%
